pKi: −log10 of the molar value.
What was measured:
Nitric oxide synthase 3 = target: T1, Nitric oxide synthase 3 (Bos taurus, UniProt P29473); experiment: Inhibition of recombinant bovine eNOS expressed in Escherichia coli assessed as nitric oxide production by hemoglobin capture assay
T1 sequence (P29473 whole entry): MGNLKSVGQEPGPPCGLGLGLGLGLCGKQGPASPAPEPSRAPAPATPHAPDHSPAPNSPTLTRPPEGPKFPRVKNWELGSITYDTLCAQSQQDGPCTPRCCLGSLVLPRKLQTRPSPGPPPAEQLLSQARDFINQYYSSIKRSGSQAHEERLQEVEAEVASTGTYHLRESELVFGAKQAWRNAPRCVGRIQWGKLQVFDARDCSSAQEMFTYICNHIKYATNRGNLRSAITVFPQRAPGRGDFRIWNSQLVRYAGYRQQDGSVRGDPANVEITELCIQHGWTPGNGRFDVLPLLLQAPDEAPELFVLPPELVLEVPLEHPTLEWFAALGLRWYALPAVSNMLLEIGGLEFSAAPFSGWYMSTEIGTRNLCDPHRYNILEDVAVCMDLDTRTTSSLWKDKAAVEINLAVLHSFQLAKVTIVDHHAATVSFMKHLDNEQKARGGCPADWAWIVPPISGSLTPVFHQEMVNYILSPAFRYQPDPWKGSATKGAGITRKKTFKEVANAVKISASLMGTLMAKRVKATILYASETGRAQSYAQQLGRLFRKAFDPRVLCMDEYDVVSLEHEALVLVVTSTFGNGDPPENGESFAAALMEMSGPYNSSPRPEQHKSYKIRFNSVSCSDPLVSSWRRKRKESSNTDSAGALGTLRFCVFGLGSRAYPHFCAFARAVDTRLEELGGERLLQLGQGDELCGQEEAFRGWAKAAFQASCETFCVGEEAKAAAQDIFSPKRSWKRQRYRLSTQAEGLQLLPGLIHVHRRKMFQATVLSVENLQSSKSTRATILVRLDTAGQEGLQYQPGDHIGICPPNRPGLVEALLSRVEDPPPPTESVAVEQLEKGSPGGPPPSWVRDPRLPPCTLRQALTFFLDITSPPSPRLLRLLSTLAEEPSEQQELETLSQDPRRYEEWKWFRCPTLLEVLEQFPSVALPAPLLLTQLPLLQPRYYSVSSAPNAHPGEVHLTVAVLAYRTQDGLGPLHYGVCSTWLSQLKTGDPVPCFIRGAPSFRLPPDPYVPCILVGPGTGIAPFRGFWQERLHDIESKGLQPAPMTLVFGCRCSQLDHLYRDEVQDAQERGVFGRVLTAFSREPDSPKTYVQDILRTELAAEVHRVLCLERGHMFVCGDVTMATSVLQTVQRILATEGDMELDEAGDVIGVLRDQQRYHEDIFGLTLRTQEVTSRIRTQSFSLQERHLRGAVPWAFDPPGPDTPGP

Nitric oxide synthase 1 [1] = target: Nitric oxide synthase 1 (Homo sapiens, UniProt P29475)
Nitric oxide synthase 1 [2] = target: Nitric oxide synthase 1 (Rattus norvegicus, UniProt P29476); experiment: Inhibition of wild type recombinant rat nNOS expressed in Escherichia coli assessed as nitric oxide production by hemoglobin capture assay
[3] = target: T2, Nitric oxide synthase, inducible (Mus musculus, UniProt P29477)
T2 sequence (P29477 whole entry): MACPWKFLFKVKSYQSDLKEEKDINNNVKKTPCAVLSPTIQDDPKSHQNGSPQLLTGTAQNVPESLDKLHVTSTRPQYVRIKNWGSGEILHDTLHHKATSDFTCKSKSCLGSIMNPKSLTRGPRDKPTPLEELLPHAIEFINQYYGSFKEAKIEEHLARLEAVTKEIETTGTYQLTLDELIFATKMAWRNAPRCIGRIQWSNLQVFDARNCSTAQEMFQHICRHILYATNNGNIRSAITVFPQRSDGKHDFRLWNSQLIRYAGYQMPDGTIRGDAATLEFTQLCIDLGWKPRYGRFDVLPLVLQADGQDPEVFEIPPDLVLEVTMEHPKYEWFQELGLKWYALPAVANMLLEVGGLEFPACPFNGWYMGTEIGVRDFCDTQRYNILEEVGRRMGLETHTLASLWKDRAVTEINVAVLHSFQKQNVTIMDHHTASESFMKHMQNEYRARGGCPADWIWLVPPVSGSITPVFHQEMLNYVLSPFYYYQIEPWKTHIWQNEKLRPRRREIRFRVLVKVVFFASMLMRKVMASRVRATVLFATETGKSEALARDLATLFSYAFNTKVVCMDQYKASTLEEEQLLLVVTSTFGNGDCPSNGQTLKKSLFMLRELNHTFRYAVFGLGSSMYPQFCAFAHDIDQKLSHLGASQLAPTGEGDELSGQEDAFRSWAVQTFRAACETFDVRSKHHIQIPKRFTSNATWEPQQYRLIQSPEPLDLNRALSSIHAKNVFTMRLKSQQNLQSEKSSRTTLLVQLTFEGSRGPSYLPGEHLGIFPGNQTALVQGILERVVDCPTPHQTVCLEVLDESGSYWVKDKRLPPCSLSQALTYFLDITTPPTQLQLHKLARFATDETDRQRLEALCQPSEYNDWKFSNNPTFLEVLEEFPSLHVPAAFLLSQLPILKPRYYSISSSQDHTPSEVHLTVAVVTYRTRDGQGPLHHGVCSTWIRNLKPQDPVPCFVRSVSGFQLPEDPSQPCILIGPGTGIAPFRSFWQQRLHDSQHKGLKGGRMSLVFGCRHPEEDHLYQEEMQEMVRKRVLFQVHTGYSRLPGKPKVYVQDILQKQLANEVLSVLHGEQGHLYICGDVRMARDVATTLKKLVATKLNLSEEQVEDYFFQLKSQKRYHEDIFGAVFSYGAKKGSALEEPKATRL

[4] = Selectivity ratio of Ki for wild type recombinant rat nNOS to Ki for bovine eNOS
[5] = Selectivity ratio of Ki for wild type recombinant rat nNOS to Ki for human nNOS

Nitric oxide synthase 1 (Rattus norvegicus, UniProt P29476), sequence (P29476 whole entry): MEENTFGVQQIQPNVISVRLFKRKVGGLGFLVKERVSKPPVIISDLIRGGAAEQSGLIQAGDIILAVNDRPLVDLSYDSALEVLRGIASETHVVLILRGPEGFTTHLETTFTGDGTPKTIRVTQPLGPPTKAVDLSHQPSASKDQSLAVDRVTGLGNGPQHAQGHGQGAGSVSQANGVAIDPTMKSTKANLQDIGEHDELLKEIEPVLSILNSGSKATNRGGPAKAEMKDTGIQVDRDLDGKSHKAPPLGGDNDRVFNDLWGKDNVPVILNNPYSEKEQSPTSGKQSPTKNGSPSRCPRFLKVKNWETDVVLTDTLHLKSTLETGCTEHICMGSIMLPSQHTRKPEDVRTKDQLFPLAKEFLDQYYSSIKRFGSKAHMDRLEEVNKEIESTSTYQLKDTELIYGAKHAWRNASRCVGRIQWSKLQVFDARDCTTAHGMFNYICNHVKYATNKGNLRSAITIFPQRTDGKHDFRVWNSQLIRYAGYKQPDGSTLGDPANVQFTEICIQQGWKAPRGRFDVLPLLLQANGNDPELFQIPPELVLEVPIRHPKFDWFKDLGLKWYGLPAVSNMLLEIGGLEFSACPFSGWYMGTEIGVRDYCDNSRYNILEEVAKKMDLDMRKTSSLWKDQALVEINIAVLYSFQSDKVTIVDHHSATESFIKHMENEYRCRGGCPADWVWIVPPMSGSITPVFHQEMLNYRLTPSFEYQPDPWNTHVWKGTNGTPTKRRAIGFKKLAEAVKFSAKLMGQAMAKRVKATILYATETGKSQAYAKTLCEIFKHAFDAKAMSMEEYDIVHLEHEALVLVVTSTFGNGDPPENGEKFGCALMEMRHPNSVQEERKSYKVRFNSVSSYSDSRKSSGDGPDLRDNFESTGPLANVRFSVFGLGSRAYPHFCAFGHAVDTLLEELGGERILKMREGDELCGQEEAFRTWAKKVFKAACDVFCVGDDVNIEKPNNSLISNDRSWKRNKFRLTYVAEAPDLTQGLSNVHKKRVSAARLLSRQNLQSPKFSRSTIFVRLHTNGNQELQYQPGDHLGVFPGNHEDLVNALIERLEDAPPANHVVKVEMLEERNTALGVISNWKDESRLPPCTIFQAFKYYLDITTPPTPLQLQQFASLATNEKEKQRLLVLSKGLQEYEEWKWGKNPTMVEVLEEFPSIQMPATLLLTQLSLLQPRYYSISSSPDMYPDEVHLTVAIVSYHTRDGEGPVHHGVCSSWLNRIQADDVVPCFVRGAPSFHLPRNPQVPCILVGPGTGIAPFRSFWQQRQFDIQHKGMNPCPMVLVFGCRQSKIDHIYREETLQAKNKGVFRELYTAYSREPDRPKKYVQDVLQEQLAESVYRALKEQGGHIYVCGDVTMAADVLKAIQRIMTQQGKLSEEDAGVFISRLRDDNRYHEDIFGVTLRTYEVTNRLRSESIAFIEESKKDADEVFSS
Nitric oxide synthase 1 (Homo sapiens, UniProt P29475), sequence (P29475 whole entry): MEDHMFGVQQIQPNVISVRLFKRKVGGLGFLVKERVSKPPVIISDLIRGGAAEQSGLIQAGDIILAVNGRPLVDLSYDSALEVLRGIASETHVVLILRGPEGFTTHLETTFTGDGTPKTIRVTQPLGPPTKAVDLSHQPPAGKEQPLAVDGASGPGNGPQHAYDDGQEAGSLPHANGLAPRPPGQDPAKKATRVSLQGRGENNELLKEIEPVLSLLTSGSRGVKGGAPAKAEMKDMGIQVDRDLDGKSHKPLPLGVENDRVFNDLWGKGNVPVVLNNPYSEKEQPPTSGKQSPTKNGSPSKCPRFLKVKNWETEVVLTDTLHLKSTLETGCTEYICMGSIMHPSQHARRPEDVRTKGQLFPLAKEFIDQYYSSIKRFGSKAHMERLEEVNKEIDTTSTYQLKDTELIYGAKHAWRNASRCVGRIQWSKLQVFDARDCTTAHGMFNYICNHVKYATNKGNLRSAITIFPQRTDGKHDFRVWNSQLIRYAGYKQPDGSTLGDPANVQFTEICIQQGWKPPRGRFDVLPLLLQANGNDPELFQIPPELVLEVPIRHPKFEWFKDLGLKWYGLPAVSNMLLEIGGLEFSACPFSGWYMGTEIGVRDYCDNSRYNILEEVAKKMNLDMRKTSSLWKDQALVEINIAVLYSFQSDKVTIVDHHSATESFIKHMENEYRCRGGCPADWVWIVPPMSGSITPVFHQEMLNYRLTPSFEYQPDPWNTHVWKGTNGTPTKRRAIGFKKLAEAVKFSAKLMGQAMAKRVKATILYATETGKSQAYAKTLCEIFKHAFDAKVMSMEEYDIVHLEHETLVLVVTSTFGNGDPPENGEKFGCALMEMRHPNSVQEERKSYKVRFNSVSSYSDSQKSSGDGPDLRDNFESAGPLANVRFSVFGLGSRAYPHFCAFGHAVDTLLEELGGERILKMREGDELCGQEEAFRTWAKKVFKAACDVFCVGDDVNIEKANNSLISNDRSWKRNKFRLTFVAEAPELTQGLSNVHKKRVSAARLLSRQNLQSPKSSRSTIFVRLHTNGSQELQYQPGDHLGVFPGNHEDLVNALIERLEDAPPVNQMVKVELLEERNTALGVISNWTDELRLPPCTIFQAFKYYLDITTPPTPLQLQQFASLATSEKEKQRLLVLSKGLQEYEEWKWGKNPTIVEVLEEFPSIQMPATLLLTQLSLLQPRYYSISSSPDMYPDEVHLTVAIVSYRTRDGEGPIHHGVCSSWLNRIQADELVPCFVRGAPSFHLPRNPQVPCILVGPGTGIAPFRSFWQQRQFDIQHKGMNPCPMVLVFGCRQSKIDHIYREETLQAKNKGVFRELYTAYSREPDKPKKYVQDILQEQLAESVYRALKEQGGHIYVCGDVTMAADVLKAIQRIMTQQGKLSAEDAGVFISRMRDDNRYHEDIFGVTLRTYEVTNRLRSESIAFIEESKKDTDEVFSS

Row | pKi (Nitric oxide synthase 3) | pKi (Nitric oxide synthase 1 [1]) | pKi (Nitric oxide synthase 1 [2]) | pKi [3] | Ratio Ki [4] | Ratio Ki [5] | Structure (SMILES)
1 | – | – | < 5.24 | – | – | – | CN(C)c1cccc(OCc2ccc3ccc(N)nc3c2)c1
2 | – | – | 6.19 | – | – | – | CN(C)CCCc1cccc(OCc2ccc3ccc(N)nc3c2)c1
3 | – | – | 6.48 | 4.31 | – | – | CNCc1ccc(OCc2ccc3ccc(N)nc3c2)cc1
4 | 4.51 | – | – | 3.75 | 44 | – | CN(C)CCOc1cccc(OCc2ccc3ccc(N)nc3c2)c1

The next lines start with the compound.

Row | Structure (SMILES) | pKi (Nitric oxide synthase 3) | pKi (Nitric oxide synthase 1 [1]) | pKi (Nitric oxide synthase 1 [2]) | pKi [3] | Ratio Ki [4] | Ratio Ki [5]
5 | CNCc1cncc(OCc2ccc3ccc(N)nc3c2)c1 | 5.48 | 6.29 | 7.37 | 4.87 | 77 | 11.8
6 | CN(C)CCc1cccc(OCc2ccc3ccc(N)nc3c2)c1 | 4.75 | – | 6.33 | 3.82 | – | –
7 | CNCc1cc(OCc2ccc3ccc(N)nc3c2)ccc1F | – | – | – | 4.94 | – | –
8 | CNCc1cccc(NCc2ccc3ccc(N)nc3c2)c1 | – | – | 6.24 | – | – | –
9 | CNC(C)c1cccc(OCc2ccc3ccc(N)nc3c2)c1 (racemic) | – | – | 6.44 | 4.17 | – | –
10 | Nc1ccc2ccc(COc3cccnc3)cc2n1 | – | – | 6.15 | – | – | –

Source: ChEMBL document CHEMBL3734753, “Phenyl Ether- and Aniline-Containing 2-Aminoquinolines as Potent and Selective Inhibitors of Neuronal Nitric Oxide Synthase” (J Med Chem, 2015)
